ChEMBL document CHEMBL3217542, “Chiral diaminocyclohexane coupling polyphenols: A new class of anticancer agents” (Medchemcomm, 2012)
Active and inactive are the calls of the source. The rule behind the calls is not given here.

Assays:
MCF7 [1] = assay: Cytotoxicity against human MCF7 cells after 2 days by SRB assay; type: functional, cell-based; conditions: MCF7, 48 h
[2] = Cytotoxicity against human fibroblasts after 2 days by SRB assay; type: cell-based; conditions: Fibroblast, 48 h
MCF7 [3] = assay: Selectivity index, ratio of IC50 for human fibroblasts to IC50 for human MCF7 cells
[4] = Cytotoxicity against human HBT-174 cells after 2 days by SRB assay; type: functional, cell-based; conditions: HBT-174, 48 h
NCI-H460 = assay: Cytotoxicity against human NCI-H460 cells after 2 days by SRB assay; type: functional, cell-based; conditions: NCI-H460, 48 h
[5] = Selectivity index, ratio of IC50 for human fibroblasts to IC50 for human HBT-174 cells
MDA-MB-453 [6] = assay: Cytotoxicity against human MDA-MB-453 cells after 2 days by SRB assay; type: functional, cell-based; conditions: MDA-MB-453, 48 h
MDA-MB-231 = assay: Cytotoxicity against human MDA-MB-231 cells after 2 days by SRB assay; type: functional, cell-based; conditions: MDA-MB-231, 48 h
MDA-MB-468 = assay: Cytotoxicity against human MDA-MB-468 cells after 2 days by SRB assay; type: functional, cell-based; conditions: MDA-MB-468, 48 h
HBT-174 = assay: Inhibition of colony formation in human HBT-174 cells assessed as decrease in colony size and number of colony at 0.5 to 5 uM treated every 3 days for 10 days by SRB staining; type: functional, cell-based
MCF7 [7] = assay: Reduction of cyclin-D1 gene expression in human MCF7 cells at 5 uM after 24 hrs by RT-PCR analysis relative to control; type: functional; parameters: scale not given: the % may be the effect or the level left
MCF7 [8] = assay: Reduction of p53 gene expression in human MCF7 cells at 5 uM after 24 hrs by RT-PCR analysis relative to control; type: functional; parameters: scale not given: the % may be the effect or the level left
MCF7 [9] = assay: Reduction of Bcl-2 gene expression in human MCF7 cells at 5 uM after 24 hrs by RT-PCR analysis relative to control; type: functional; parameters: scale not given: the % may be the effect or the level left
MCF7 [10] = assay: Reduction of Bcl-xL gene expression in human MCF7 cells at 5 uM after 24 hrs by RT-PCR analysis relative to control; type: functional; parameters: scale not given: the % may be the effect or the level left
MDA-MB-453 [11] = assay: Antimammosphere formation activity in human MDA-MB-453 cells assessed as ALDH positive cells at 1 uM after 4 days relative to control; type: functional
MDA-MB-453 [12] = assay: Antimammosphere formation activity in human MDA-MB-453 cells assessed as ALDH positive cells at 5 uM after 4 days relative to control; type: functional
MDA-MB-453 [13] = assay: Antimammosphere formation activity in human MDA-MB-453 cells assessed as ALDH positive cells at 10 uM after 4 days relative to control; type: functional

SMILES | IC50 (MCF7 [1]) | IC50 [2] | Ratio IC50 (MCF7 [3]) | IC50 [4] | IC50 (NCI-H460) | Ratio IC50 [5] | IC50 (MDA-MB-453 [6]) | IC50 (MDA-MB-231) | IC50 (MDA-MB-468) | inhibition (HBT-174) | Activity (MCF7 [7]) | Activity (MCF7 [8]) | Activity (MCF7 [9]) | Activity (MCF7 [10]) | Activity (MDA-MB-453 [11]) | Activity (MDA-MB-453 [12]) | Activity (MDA-MB-453 [13])
O=C(O)c1ccc(O)c(CN[C@@H]2CCCC[C@H]2NCc2cc(C(=O)O)ccc2O)c1 | 8.4 µM | 108 µM | 12.8 |  |  |  |  |  |  |  |  |  |  |  |  |  | 
Cc1ccc(O)c(CN[C@@H]2CCCC[C@H]2NCc2cc(C)ccc2O)c1 | 3.6 µM | 37 µM | 10.3 |  |  |  |  |  |  |  |  |  |  |  |  |  | 
Oc1ccc(O)c(CN[C@@H]2CCCC[C@H]2NCc2cc(O)ccc2O)c1 | 5.2 µM | 75 µM | 14.4 | 8 µM | 2.4 µM | 9.4 | 5.2 µM | 3.8 µM | 5.9 µM |  |  |  |  |  |  |  | 
Oc1ccc(CN[C@@H]2CCCC[C@H]2NCc2ccc(O)cc2O)c(O)c1 | 6 µM | 82 µM | 13.7 | 8.2 µM | 2.2 µM | 10 | 4.5 µM | 4 µM | 4.4 µM |  |  |  |  |  |  |  | 
Oc1ccc(CN[C@@H]2CCCC[C@H]2NCc2ccc(O)c(O)c2)cc1O | 2.5 µM | 32 µM | 12.8 | 3.3 µM | 0.9 µM | 9.7 | 1.8 µM | 1.4 µM | 1.2 µM |  |  |  |  |  |  |  | 
Oc1cccc(CN[C@@H]2CCCC[C@H]2NCc2cccc(O)c2O)c1O | 4.8 µM | 106 µM | 22.1 | 6.8 µM | 1.8 µM | 15.6 | 4.6 µM | 2.4 µM | 3.3 µM | Active | 24.8% | 33.1% | 15.6% | 22.2% | 90% | 25% | <5%
